{"source": "patent US20030007996A1", "about": "“Therapies for the prevention and treatment of diabetes and obesity” (priority 2001, published 2003)", "key": {"soleus muscle strips": {"tested_on": "soleus muscle strips", "experiment": "3-O-methyl glucose transport (3MGT) in incubated soleus muscle strips (Example 12)", "assay_type": "cell-based, rat", "details": "for effect on 3MGT: 10 minute incubation", "protocol": "Male Sprague-Dawley rats are used in all the following examples. Soleus muscle strips are incubated as described by Bonen et al (1992), Wilkes and Bonen (2000) and Bonen et al (1994) to determine glucose transport. Basal and insulin-stimulated 3-O-methyl glucose transport (3MGT) is examined in a dose dependent (0-10 nM) manner during a 10 minute incubation period in appropriate buffer (Bonen et al., 1994). Comparison of this dose-response relationship of insulin, and the A1 agonist CPA, and A2 agonist DPMA on 3MGT is conducted. 3MGT rates are linear for up to 20 minutes. The 10 minute period is therefore a convenient time point to acquire sufficient counts in the muscle at a reasonable cost of using radiolabelled 3MGT.\nOptimal stimulating concentrations of insulin, CPA, and DPMA are established for 3MGT."}, "Akt": {"tested_on": "Akt", "experiment": "Signaling protein activation in isolated rodent muscles (Example 14)", "assay_type": "cell-based, rat", "protocol": "Experiments with insulin, CPA and DPMA are performed in isolated muscles using optimal stimulating concentrations to determine which signaling proteins are activated. For this purpose, isolated rodent muscles are incubated with either basal or maximal insulin concentrations with and without either CPA or DPMA. Glucose transport is determined by 3MGT, measured over 10 minutes. The muscle samples are analyzed for IRTK, IRS-1 associated P13 kinase, p38 MAP kinase and Akt activities. The critical exposure time to activate signaling proteins is established in pilot work. […] Optimal exposure times required for signaling protein activation by CPA and DPMA are established. […] We establish that blocking P13-kinase with LY29004 blocks downstream activation of Akt by insulin, and by CPA and DPMA."}, "[1]": {"tested_on": "A1 and A2 adenosine receptors", "experiment": "Adenosine receptor-stimulated adenylate cyclase activity (cAMP) in skeletal muscle homogenates (Example 4)", "assay_type": "biochemical, rat", "protocol": "The purpose of this study was to investigate the presence of A1 and A2 adenosine receptors (AR) in rat and human skeletal muscle. Adenosine receptor-stimulated adenylate cyclase activity studies were conducted to determine cAMP responses in the presence of AR agonists using rat skeletal muscle homogenates. Subsequently, Western blotting experiments were conducted to identify the A1 and A2 receptor proteins in rodent and human skeletal muscle samples. […] There was little effect of R-PIA (an A1 AR agonist) on cAMP levels in any fiber type. […] A2a expression was highest in the liver compared to muscle and heart homogenates."}, "[2]": {"tested_on": "obese (BMI>30) nondiabetic males", "experiment": "OGTT after caffeine ingestion in obese nondiabetic males (Example 5)", "assay_type": "in vivo, human", "details": "obese males (n=4)"}, "[3]": {"tested_on": "obese (BMI=30-38 kg/m2) men", "experiment": "OGTT after caffeine before and after a weight loss program (Example 6)", "assay_type": "in vivo, human"}, "[4]": {"tested_on": "obese type 2 diabetic males", "experiment": "OGTT with and without caffeine in obese type 2 diabetic males (Example 19)", "assay_type": "in vivo, human"}, "young type 1 diabetics": {"tested_on": "young type 1 diabetics", "experiment": "Caffeine followed by high glycemic index cereal in type 1 diabetics (Example 18)", "assay_type": "in vivo, human", "protocol": "Young type 1 diabetics (5 females and 1 male) who had been diagnosed for an average of 8.3±5.4 years volunteered to perform two trials in a randomized, double blind study design. Subjects were given either placebo or caffeine-containing (5 mg/kg) capsules and 30 minutes later they self-administered the appropriate amount of insulin for the ingestion of 60 g of carbohydrates in the form of a high glycemic cereal with 125 ml of 1% milk. The amount of self-administered insulin and injection site were the same for both trials. Venous blood glucose was measured prior to capsule ingestion, prior to insulin injection, and immediately following ingestion of the cereal meal (t=0 minutes). Blood glucose was then measured every 15 minutes for the next 2.5 hours."}, "lean sedentary males": {"tested_on": "lean sedentary males", "experiment": "Hyperinsulinemic euglycemic clamp after caffeine ingestion (Example 1)", "assay_type": "in vivo, human", "protocol": "(§1) The methods and materials employed in this invention are common to those skilled in the art. The methods and materials for the hyperinsulinemic euglycemic glucose clamp test are found in Greer et al., 2001. The methods and materials for the oral glucose tolerance test (OGTT) are described in Graham et al., 2001.\nTrials were separated by one week. Prior to each clamp session, subjects withdrew from methylxanthine containing products for 48 hours."}, "[5]": {"tested_on": "obese and Type 2 diabetic males", "experiment": "OGTT with and without caffeine in lean, obese and Type 2 diabetic males (Example 8)", "assay_type": "in vivo, human", "excerpt": "The results will be compared to the current data base; containing data (28,40) collected in an identical fashion for 30 lean (BMI of less than 25) males age 18-30 years. Lean subjects have BMI of less than 25, the obese are class I (BMI 30-34), abdominal obese (waist circumference>100 cm) and the diabetics have the same anthropometry. The diabetics are volunteers who have been well controlled for a year, with glycosylated hemoglobin levels between 6.5-9.5% for at least three months. They have similar levels of obesity, are not insulin-dependent, and are not on oral hypoglycemic agents, but rather diet-controlled. Their participation is medically approved and they are screened for hypertension and angina. The area under the curve for insulin and C-peptide is greater for the obese and even greater for the diabetic subjects. […] Data also includes plasma catecholamines, methylxanthines, FFA, and glycerol."}, "healthy male subjects": {"tested_on": "healthy male subjects", "experiment": "OGTT after alkaloid caffeine, caffeinated coffee, decaffeinated coffee or placebo (Example 3)", "assay_type": "in vivo, human", "details": "two hours of the OGTT; n=10", "protocol": "as §1\nVenous blood samples were taken at −30, 0 (treatment given), 60 (OGTT administered), 75, 90, 120, 150 and 180 minutes and were analyzed for glucose, insulin, C peptide, glycerol, free fatty acids and lactate. Area under the curve (AUC) were calculated for the two hours of the OGTT. […] This component acts as an adenosine receptor […]."}, "young, fit, adult males": {"tested_on": "young, fit, adult males", "experiment": "Oral glucose tolerance test (OGTT) after caffeine ingestion in lean males (Example 2)", "assay_type": "in vivo, human", "excerpt": "as §1\nYoung, fit, adult males (n=18) underwent two oral glucose tolerance tests (OGTT). […] Following the OGTT all of these parameters increased (p≦0.05) for the duration of the OGTT. […] During the OGTT these decreased to match those of the placebo trial. […] The data support the hypothesis that caffeine ingestion impairs glucose disposal."}, "[6]": {"tested_on": "young, sedentary, obese males", "experiment": "OGTT after caffeine in obese, resting males (Example 7)", "assay_type": "in vivo, human", "details": "p<0.05"}, "[7]": {"details": "caffeine 5 mg/kg 1 h before 75 g dextrose, p≦0.05"}, "[8]": {"details": "last 90 minutes of the OGTT, p≦0.05"}}}
{"smiles": "OC[C@H]1O[C@@H](n2cnc3c(NC4CCCC4)ncnc32)[C@H](O)[C@@H]1O", "note": "[CPA, N6-cyclopentyladenosine]", "values": [{"measurement": "effect on 3MGT", "setting": "soleus muscle strips", "result": "increases"}]}
{"smiles": "COc1cc(OC)cc(C(CNc2ncnc3c2ncn3[C@@H]2O[C@H](CO)[C@@H](O)[C@H]2O)c2ccccc2C)c1", "note": "(stereo partly shown) [DPMA, N-[2-(3,5-dimethoxy-phenyl)-2-(2-methylphenyl)ethyl]-adenosine]", "values": [{"measurement": "effect on 3MGT", "setting": "soleus muscle strips", "result": "increases"}]}
{"smiles": "O=c1cc(N2CCOCC2)oc2c(-c3ccccc3)cccc12", "note": "[LY29004]", "values": [{"measurement": "effect on CPA- and DPMA-induced increases in 3MGT", "setting": "soleus muscle strips", "result": "inhibited"}, {"measurement": "effect on insulin stimulated 3MGT", "setting": "soleus muscle strips", "result": "inhibited"}, {"measurement": "effect on downstream activation of Akt by insulin, and by CPA and DPMA", "setting": "Akt", "result": "blocks"}]}
{"smiles": "CCNC(=O)[C@H]1O[C@@H](n2cnc3c(N)ncnc32)[C@H](O)[C@@H]1O", "note": "[NECA]", "values": [{"measurement": "effect on cAMP production", "setting": "[1]; glycolytic samples", "result": "no effect"}, {"measurement": "increase in cAMP production", "setting": "[1]; rat oxidative muscle homogenates", "result": 7.5, "unit": "fold"}]}
{"smiles": "C[C@H](Cc1ccccc1)Nc1ncnc2c1ncn2[C@@H]1O[C@H](CO)[C@@H](O)[C@H]1O", "note": "[R-PIA]", "values": [{"measurement": "effect on cAMP levels", "setting": "[1]; any fiber type", "result": "little effect"}]}
{"smiles": "Cn1c(=O)c2c(ncn2C)n(C)c1=O", "note": "[caffeine]", "values": [{"measurement": "AUC for GLU", "setting": "[2]", "result": 167, "unit": "mM/2 h"}, {"measurement": "insulin AUC", "setting": "[2]; placebo 6938", "result": "10,968 uU/ml/2 h"}, {"measurement": "increase in insulin during the OGTT compared to placebo", "setting": "[3]; following the twelve week intervention, p=0.056", "result": "greater"}, {"measurement": "blood glucose vs placebo", "setting": "[3]; prior to the twelve week intervention", "result": "no differences"}, {"measurement": "insulin response during the OGTT vs placebo", "setting": "[3]; prior to the twelve week intervention, caffeine 5 mg/kg, p=0.043", "result": "greater"}, {"measurement": "blood glucose", "setting": "[4]; 180 minutes following ingestion of the OGTT, caffeine 5 mg/kg, placebo 7.4±1.0", "result": "8.4 ± 0.8", "unit": "mM"}, {"measurement": "blood glucose compared with placebo", "setting": "[4]; last hour of the OGTT (120 to 180 minutes), p<0.05", "result": "significantly elevated"}, {"measurement": "difference in the glucose area under the curve, caffeine vs placebo", "setting": "young type 1 diabetics; caffeine 5 mg/kg", "result": 72, "unit": "%"}, {"measurement": "glucose area under the curve", "setting": "young type 1 diabetics; caffeine 5 mg/kg capsules, placebo 347±7.4, p<0.01", "result": "598±7.4", "unit": "mM/2.5 h"}, {"measurement": "decrease in carbohydrate storage compared to placebo", "setting": "lean sedentary males; caffeine 5 mg/kg", "result": 35, "unit": "%"}, {"measurement": "decrease in glucose disposal", "setting": "lean sedentary males; caffeine 5 mg/kg vs placebo", "result": 24, "unit": "%"}, {"measurement": "glucose disposal", "setting": "lean sedentary males; caffeine 5 mg/kg, placebo 8.42+/−0.63, n=9", "result": "6.38 ± 0.76", "unit": "mg/kg/min"}, {"measurement": "area under the curves for insulin and C-peptide following caffeine ingestion", "setting": "[5]; lean subjects", "result": "increased"}, {"measurement": "area under the curves for insulin and C-peptide following caffeine ingestion", "setting": "[5]; obese and diabetic subjects, relative to lean", "result": "even greater response"}, {"measurement": "AUC for glucose, comparison between treatments", "setting": "healthy male subjects", "result": "higher than both CC (p<0.04) and DC (p<0.01)"}, {"measurement": "AUC for insulin, comparison between treatments", "setting": "healthy male subjects", "result": "higher AUC for insulin (see FIG. 5) than both PL (p<0.002) and DC (p<0.001)"}, {"measurement": "AUC for peptide C, comparison between treatments", "setting": "healthy male subjects", "result": "higher values than both PL (p<0.02) and DC (p<0.001)"}, {"measurement": "serum fatty acids, glycerol and plasma epinephrine", "setting": "young, fit, adult males; after caffeine ingestion, before OGTT, p≦0.05", "result": "increase"}, {"measurement": "serum C peptide area under the curve, greater than placebo", "setting": "young, fit, adult males; [7]", "result": 37, "unit": "%"}, {"measurement": "serum insulin area under the curve, greater than placebo", "setting": "young, fit, adult males; [7]", "result": 60, "unit": "%"}, {"measurement": "blood glucose level vs placebo", "setting": "young, fit, adult males; during OGTT", "result": "no differences between trials"}, {"measurement": "serum C peptide concentration vs placebo", "setting": "young, fit, adult males; [8]", "result": "significantly greater"}, {"measurement": "serum insulin concentration vs placebo", "setting": "young, fit, adult males; [8]", "result": "significantly greater"}, {"measurement": "AUC for GLU", "setting": "young, fit, adult males; lean males (n=18), OGTT", "result": 168, "unit": "mM/2 h"}, {"measurement": "insulin AUC", "setting": "young, fit, adult males; lean males (n=18), OGTT, placebo 3274", "result": 5242, "unit": "uU/ml/2h"}, {"measurement": "glucose area under the curve during the OGTT", "setting": "[6]; caffeine 5 mg/kg, n=28, placebo 188.5", "result": 260.1, "unit": "mM/2h"}, {"measurement": "insulin area under the curve during the OGTT", "setting": "[6]; caffeine 5 mg/kg, n=28, placebo 7037.9", "result": 9455.8, "unit": "uIU/ml/2h"}, {"measurement": "glucose level vs placebo", "setting": "[6]; last 90 minutes of the OGTT", "result": "significantly greater"}, {"measurement": "insulin level vs placebo", "setting": "[6]; last 105 minutes of the OGTT", "result": "significantly greater"}]}
